This note sets out measurements from PubChem BioAssay AID192 (DTP/NCI, 2004).

The assay has as its system BDF1 mice, B16 melanoma ip, median survival T/C. In words: NCI In Vivo Anticancer Drug Screen. Data for tumor model B16 Melanoma (intraperitoneal) in B6D2F1 (BDF1) mice. Conditions: endpoint: median survival time, higher = longer survival. In a few lines:
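Mice with transplantable tumors; drug vs vehicle groups; endpoint survival or tumor size; value = T/C.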

The mark [1] stands for this setting: dose: 6.25 mg/kg/injection, schedule: Q01DX009 (ip), vehicle: Klucel (hydroxypropylcellulose) (HPC).
The mark [2] stands for this setting: dose: 12.5 mg/kg/injection, schedule: Q01DX009 (ip), vehicle: Klucel (hydroxypropylcellulose) (HPC).
Where [3] appears, read: dose: 25.0 mg/kg/injection, schedule: Q01DX009 (ip), vehicle: Klucel (hydroxypropylcellulose) (HPC).
Setting [4] is: dose: 50.0 mg/kg/injection, schedule: Q01DX009 (ip), vehicle: saline with Tween-80.
The mark [5] stands for this setting: dose: 100.0 mg/kg/injection, schedule: Q01DX009 (ip), vehicle: saline with Tween-80.
The mark [6] stands for this setting: dose: 200.0 mg/kg/injection, schedule: Q01DX009 (ip), vehicle: saline with Tween-80.
Setting [7] is: dose: 100.0 mg/kg/injection, schedule: Q01DX009 (ip), vehicle: Klucel (hydroxypropylcellulose) (HPC).
Setting [8] is: dose: 50.0 mg/kg/injection, schedule: Q01DX009 (ip), vehicle: Klucel (hydroxypropylcellulose) (HPC).
Setting [9] is: dose: 200.0 mg/kg/injection, schedule: Q01DX009 (ip), vehicle: Klucel (hydroxypropylcellulose) (HPC).
The mark [10] stands for this setting: dose: 12.5 mg/kg/injection, schedule: Q01DX009 (ip), vehicle: saline.
Where [11] appears, read: dose: 25.0 mg/kg/injection, schedule: Q01DX009 (ip), vehicle: saline.
The mark [12] stands for this setting: dose: 50.0 mg/kg/injection, schedule: Q01DX009 (ip), vehicle: saline.
[13] abbreviates: dose: 12.5 mg/kg/injection, schedule: Q01DX009 (ip), vehicle: saline with Tween-80.
The mark [14] stands for this setting: dose: 25.0 mg/kg/injection, schedule: Q01DX009 (ip), vehicle: saline with Tween-80.

The structures appear in SMILES notation. Values joined by “and” are separate entries in the source; they are usually repeats but may differ in a detail not shown here. Equal values may be shown once. Inconclusive results and toxic doses are left out. Peptide text beside a SMILES is read from it. * marks the point of attachment. Cbz = O=C(OCc1ccccc1)*

On to `CCCc1c(Cl)nc(Cl)nc1Cl`, for which the T/C under setting [1] is 110 % of control; the T/C under setting [2] is 103 % of control; the T/C under setting [3] is 101 % of control and 109 % of control.
Take `COC(=O)CNC(=O)C(NC(=O)C1CCCN1C(=O)OCc1ccccc1)C(C)C` (stereo not drawn) (Cbz-Pro-Val-Gly-OMe; configuration not given here): the T/C reads like this: under setting [4], 91 % of control; under setting [5], 88 % of control.
Take `C[n+]1cccc(NC(=O)c2ccc(NC(=O)c3ccc(C(=O)Nc4ccc(NC(=N)N)cc4)cc3)cc2)c1`: the T/C is, setting by setting: (dose: 0.9 mg/kg/injection, schedule: Q01DX009 (ip), vehicle: saline) 102 % of control; (dose: 1.3 mg/kg/injection, schedule: Q01DX009 (ip), vehicle: saline) 94 % of control; (dose: 2.0 mg/kg/injection, schedule: Q01DX009 (ip), vehicle: saline) 116 % of control.
Turning to `C=C1C(=O)OC2/C=C(\CO)C(OC(C)=O)CC(O)/C(C)=C/C(OC(=O)C(C)CC)C12` (centres undefined), the T/C by setting is: (dose: 1.56 mg/kg/injection, schedule: Q01DX009 (ip), vehicle: Klucel (hydroxypropylcellulose) (HPC)) 108 % of control; (dose: 3.13 mg/kg/injection, schedule: Q01DX009 (ip), vehicle: Klucel (hydroxypropylcellulose) (HPC)) 101 % of control; under setting [1], 109 % of control.
Take `COc1ccccc1NC(=O)Nc1cccc(C(C)=O)c1`: the T/C was 94 % of control under setting [5] and 92 % of control under setting [6].
As to `Cc1cccc(C)c1NC(=O)c1ccc(Cl)cc1Cl`, the T/C under setting [7] was 92 % of control.
`Cc1cc(Cl)ccc1NS(=O)(=O)c1cccc([N+](=O)[O-])c1`: the T/C runs as follows: under setting [5], 116 % of control; under setting [6], 121 % of control; (dose: 400.0 mg/kg/injection, schedule: Q01DX009 (ip), vehicle: saline with Tween-80) 107 % of control.
For the molecule `O=C(O)C(=O)O.[U]`, the T/C by setting is: (dose: 4.0 mg/kg/injection, schedule: Q01DX009 (ip), vehicle: Klucel (hydroxypropylcellulose) (HPC)) 88 % of control; (dose: 8.0 mg/kg/injection, schedule: Q01DX009 (ip), vehicle: Klucel (hydroxypropylcellulose) (HPC)) 93 % of control; (dose: 16.0 mg/kg/injection, schedule: Q01DX009 (ip), vehicle: Klucel (hydroxypropylcellulose) (HPC)) 87 % of control.
In the case of `COc1ccc2c(oc(=O)c3c(Cl)nc(C)c(C)c32)c1OC`, the T/C under setting [3] was 105 % of control, the T/C under setting [8] is 98 % of control, the T/C under setting [7] is 97 % of control and the T/C under setting [9] was 94 % of control.
Regarding `Nc1[nH]c(=O)nc2nc[nH]c12`, the T/C is, setting by setting: under setting [10], 108 % of control; under setting [11], 94 % of control; under setting [12], 89 % of control.
Regarding `CC(=O)Oc1ccccc1O`, the T/C reads like this: (dose: 25.0 mg/kg/injection, schedule: Q01DX009 (ip), vehicle: saline + Tween-80 + alcohol) 100 % of control; (dose: 50.0 mg/kg/injection, schedule: Q01DX009 (ip), vehicle: saline + Tween-80 + alcohol) 109 % of control; (dose: 100.0 mg/kg/injection, schedule: Q01DX009 (ip), vehicle: saline + Tween-80 + alcohol) 104 % of control.
`CCc1cc(O)cc(C)c1Cl`: the T/C by setting is: under setting [13], 95 % of control; under setting [14], 110 % of control; under setting [4], 99 % of control and 106 % of control.
Regarding `CS(=O)(=O)[O-].CS(=O)(=O)[O-].NC1CCCCC1N.[Pt+4]` (centres undefined), the T/C (dose: 0.62 mg/kg/injection, schedule: Q01DX009 (ip), vehicle: other) was 124 % of control and the T/C (dose: 1.25 mg/kg/injection, schedule: Q01DX009 (ip), vehicle: other) is 159 % of control.
Consider `C=C1C(=O)OC2C3OC(C)(CCC(O)C3COC(C)=O)CC(OC(=O)/C(=C/C)COC(C)=O)C12` (centres undefined), for which the T/C was 111 % of control (dose: 0.04 mg/kg/injection, schedule: Q01DX009 (ip), vehicle: suspension in saline); 109 % of control (dose: 0.09 mg/kg/injection, schedule: Q01DX009 (ip), vehicle: suspension in saline); 107 % of control (dose: 0.18 mg/kg/injection, schedule: Q01DX009 (ip), vehicle: suspension in saline); 91 % of control (dose: 0.37 mg/kg/injection, schedule: Q01DX009 (ip), vehicle: suspension in saline); 91 % of control under setting [1]; 98 % of control under setting [2]. In addition, under setting [3], the T/C was 105 % of control.
Turning to `CCNC(Cc1ccccc1)c1ccc(OC)cc1` (centres undefined), the T/C by setting is: under setting [2], 106 % of control; under setting [3], 100 % of control; under setting [8], 113 % of control.
With `NC(Cc1ccc(O)cc1)C(=O)N/N=C/c1ccc(N(CCCl)CCCl)cc1` (centres undefined), the T/C reads like this: (dose: 15.0 mg/kg/injection, schedule: Q01DX009 (ip), vehicle: Klucel (hydroxypropylcellulose) (HPC)) 115 % of control; (dose: 30.0 mg/kg/injection, schedule: Q01DX009 (ip), vehicle: Klucel (hydroxypropylcellulose) (HPC)) 120 % of control.
Consider `O=C(O)CCC1CCCCC1=O` (centres undefined), for which the T/C is, setting by setting: under setting [9], 120 % of control; (dose: 400.0 mg/kg/injection, schedule: Q01DX009 (ip), vehicle: Klucel (hydroxypropylcellulose) (HPC)) 100 % of control.
For `CCCCCCCCCCCCCCCC(=O)N(C/C=C/CN(CCCN(C)C)C(=O)CCCCCCCCCCCCCCC)CCCN(C)C`, the T/C is, setting by setting: (dose: 0.78 mg/kg/injection, schedule: Q01DX009 (ip), vehicle: saline with Tween-80) 86 % of control; (dose: 1.56 mg/kg/injection, schedule: Q01DX009 (ip), vehicle: saline) 90 % of control; (dose: 1.6 mg/kg/injection, schedule: Q01DX009 (ip), vehicle: saline with Tween-80) 104 % of control; (dose: 3.13 mg/kg/injection, schedule: Q01DX009 (ip), vehicle: saline with Tween-80) 97 % of control; (dose: 3.2 mg/kg/injection, schedule: Q01DX009 (ip), vehicle: saline with Tween-80) 95 % of control; (dose: 6.25 mg/kg/injection, schedule: Q01DX009 (ip), vehicle: saline with Tween-80) 95 % of control. The T/C was 91 % of control (dose: 6.3 mg/kg/injection, schedule: Q01DX009 (ip), vehicle: saline with Tween-80); 177 % of control (dose: 12.5 mg/kg/injection, schedule: Q04DX003 (ip), vehicle: saline with Tween-80); 158 % of control under setting [14]; 163 % of control (dose: 25.0 mg/kg/injection, schedule: Q04DX003 (ip), vehicle: saline with Tween-80); 155 % of control (dose: 50.0 mg/kg/injection, schedule: Q04DX003 (ip), vehicle: saline with Tween-80).
Take `COc1cc(NC(=O)CC(C)=O)cc(OC)c1OC`: the T/C (dose: 100.0 mg/kg/injection, schedule: Q01DX009 (ip), vehicle: saline) was 112 % of control; the T/C (dose: 132.0 mg/kg/injection, schedule: Q01DX009 (ip), vehicle: saline with Tween-80) was 100 % of control; the T/C under setting [6] is 95 % of control; the T/C (dose: 300.0 mg/kg/injection, schedule: Q01DX009 (ip), vehicle: saline with Tween-80) is 95 % of control; the T/C (dose: 400.0 mg/kg/injection, schedule: Q01DX009 (ip), vehicle: saline) is 90 % of control.
As for `COc1ccc2cc1Oc1ccc(cc1)C[C@H]1c3cc(c(OC)cc3CCN1C)Oc1c(OC)c(OC)cc3c1[C@H](C2)N(C)CC3`, the T/C was 109 % of control (dose: 12.5 mg/kg/injection, schedule: Q01DX009 (ip), vehicle: other); 106 % of control and 108 % of control under setting [13]; 97 % of control under setting [10]; 94 % of control (dose: 12.5 mg/kg/injection, schedule: Q04DX003 (ip), vehicle: saline); 106 % of control (dose: 25.0 mg/kg/injection, schedule: Q01DX009 (ip), vehicle: other); 106 % of control and 115 % of control under setting [14]. Besides, the T/C by setting is: under setting [11], 100 % of control; (dose: 25.0 mg/kg/injection, schedule: Q04DX003 (ip), vehicle: saline) 108 % of control; (dose: 50.0 mg/kg/injection, schedule: Q01DX009 (ip), vehicle: other) 102 % of control; under setting [4], 94 % of control and 113 % of control; under setting [12], 105 % of control; (dose: 50.0 mg/kg/injection, schedule: Q04DX003 (ip), vehicle: saline) 97 % of control. Besides, the T/C is 89 % of control and 101 % of control and 109 % of control under setting [5]; 100 % of control (dose: 100.0 mg/kg/injection, schedule: Q04DX003 (ip), vehicle: saline).
